Common to all, as to type: cell-based
One assay addresses T1, BRAF G466V (Homo sapiens, UniProt P15056, G466V).
T1 construct: Horizon Discovery (HCT-116 BRAF−/− cells); host or cells: HCT-116 BRAF−/− cells, clone 8, lentiviral transduction
The experiment in a line: BRAF HiBiT degradation assay, C-terminal HiBiT-tagged BRAF G466V overexpressed in HCT-116 BRAF−/− cells (clone 8), Nano-Glo HiBiT Lytic assay. The method in brief: (§1)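 HCT-116 BRAF−/− clones stably overexpressing C-terminal HiBiT-tagged mutant BRAF were seeded 24 h before treatment with an 11-point half-log series from 1 μM to 0.01 nM (0.2% DMSO final). Remaining protein was read by HiBiT lytic luminescence, with DMSO and wildtype-cell controls. DC50 was taken as the fitted concentration at 50% remaining protein; observed Dmax is reported relative to DMSO.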
In general terms: With HiBiT, luminescence reflects the tagged protein that the partner subunit can reach.

Another assay has as its target T2, BRAF V600E (Homo sapiens, UniProt P15056, V600E).
T2 construct: endogenous C-terminal HiBiT fusion tag on BRAF V600E allele; endogenous in cells; host or cells: A375 clone 1F10 (CRISPR-Cas9 knock-in of the HiBiT tag; parental A375 from ATCC)
Kind of assay: BRAF HiBiT degradation assay, C-terminal HiBiT-tagged BRAF V600E A375 cells (clone 1F10), Nano-Glo HiBiT Lytic assay. Conditions: for Dmax: A-375. The method in brief: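 A375 cells (clone 1F10, endogenous C-terminal HiBiT on BRAF V600E) were seeded at 10,000 cells/well, grown 24 h, then dosed in duplicate with an 11-point series from 1 μM to 0.01 nM (0.2% DMSO). Nano-Glo HiBiT lytic luminescence was normalised to DMSO and wildtype-A375 background; DC50 was read at 50% protein remaining, alongside observed Dmax.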

A further assay concerns the target T3, BRAF G469A (Homo sapiens, UniProt P15056, G469A).
T3 construct: Horizon Discovery (HCT-116 BRAF−/− cells); host or cells: HCT-116 BRAF−/− cells, clone 34, lentiviral transduction
Kind of assay: BRAF HiBiT degradation assay, C-terminal HiBiT-tagged BRAF G469A overexpressed in HCT-116 BRAF−/− cells (clone 34), Nano-Glo HiBiT Lytic assay. The method in brief: as §1

In another assay the target is T4, BRAF D594G (Homo sapiens, UniProt P15056, D594G).
T4 construct: Horizon Discovery (HCT-116 BRAF−/− cells); host or cells: HCT-116 BRAF−/− cells, clone 63, lentiviral transduction
T4 sequence (P15056 whole entry D594G): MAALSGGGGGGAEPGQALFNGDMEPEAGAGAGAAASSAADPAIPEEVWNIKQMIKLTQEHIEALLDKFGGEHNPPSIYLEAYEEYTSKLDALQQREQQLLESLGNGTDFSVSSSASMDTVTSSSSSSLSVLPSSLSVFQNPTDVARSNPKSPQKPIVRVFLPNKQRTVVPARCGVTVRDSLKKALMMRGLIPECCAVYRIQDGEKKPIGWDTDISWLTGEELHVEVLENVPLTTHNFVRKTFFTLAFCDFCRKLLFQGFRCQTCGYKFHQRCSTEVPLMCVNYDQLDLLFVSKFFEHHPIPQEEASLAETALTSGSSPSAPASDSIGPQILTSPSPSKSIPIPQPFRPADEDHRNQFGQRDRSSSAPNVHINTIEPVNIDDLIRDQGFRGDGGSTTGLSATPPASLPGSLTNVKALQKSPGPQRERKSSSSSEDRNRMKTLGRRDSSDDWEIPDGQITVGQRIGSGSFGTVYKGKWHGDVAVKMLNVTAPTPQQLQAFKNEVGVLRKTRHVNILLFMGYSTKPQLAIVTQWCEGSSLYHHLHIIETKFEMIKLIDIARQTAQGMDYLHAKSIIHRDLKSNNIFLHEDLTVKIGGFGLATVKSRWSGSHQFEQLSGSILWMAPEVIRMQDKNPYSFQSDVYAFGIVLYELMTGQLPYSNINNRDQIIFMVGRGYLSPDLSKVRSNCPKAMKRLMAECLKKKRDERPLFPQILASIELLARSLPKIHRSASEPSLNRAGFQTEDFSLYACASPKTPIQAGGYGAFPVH
Kind of assay: BRAF HiBiT degradation assay, C-terminal HiBiT-tagged BRAF D594G overexpressed in HCT-116 BRAF−/− cells (clone 63), Nano-Glo HiBiT Lytic assay. The method in brief: as §1

Setting [1] is: BRAF G466V, DC50 at 50%: fitted conc. at Y=50.
The mark [2] stands for this setting: HCT-116, BRAF G466V, percentage protein degraded at maximal compound effect relative to DMSO.
[3] abbreviates: A375 (BRAF V600E), DC50 at 50%: fitted conc. at Y=50.
[4] abbreviates: A375 (BRAF V600E), percentage protein degraded at maximal compound effect relative to DMSO.
Setting [5] is: Class 2, BRAF G469A, DC50 at 50%: fitted conc. at Y=50.
Where [6] appears, read: HCT-116, Class 2, BRAF G469A, percentage protein degraded at maximal compound effect relative to DMSO.
Setting [7] is: BRAF D594G, DC50 at 50%: fitted conc. at Y=50.
Where [8] appears, read: HCT-116, BRAF D594G, percentage protein degraded at maximal compound effect relative to DMSO.
Setting [9] is: BRAF G466V (Class 3), HCT-116 BRAF−/− cells, DC50 at 50% degradation.
[10] abbreviates: BRAF G466V (Class 3), HCT-116 BRAF−/− cells, observed Dmax relative to DMSO control.
The mark [11] stands for this setting: A375 (BRAF V600E, Class 1), DC50 at 50% degradation.
[12] abbreviates: A375 (BRAF V600E, Class 1), observed Dmax, % protein degraded relative to DMSO control.
Where [13] appears, read: BRAF G469A (Class 2), HCT-116 BRAF−/− cells, DC50 at 50% degradation.
[14] abbreviates: BRAF G469A (Class 2), HCT-116 BRAF−/− cells, observed Dmax relative to DMSO control.
Setting [15] is: BRAF D594G (Class 3), HCT-116 BRAF−/− cells, DC50 at 50% degradation.
The mark [16] stands for this setting: BRAF D594G (Class 3), HCT-116 BRAF−/− cells, observed Dmax relative to DMSO control.

T3 sequence (P15056 whole entry G469A): as the sequence (P15056 whole entry D594G) above, with G469A, G594D counted along it
T2 sequence (P15056 whole entry V600E, the tested form may be a part): as the sequence (P15056 whole entry D594G) above, with G594D, V600E counted along it
T1 sequence (P15056 whole entry G466V): as the sequence (P15056 whole entry D594G) above, with G466V, G594D counted along it

As usually defined, the DC50 is the concentration giving 50% degradation. Low readings indicate a more potent degrader, high ones a less potent degrader. By Dmax is commonly meant the largest share of the target that was removed. High values mean deep degradation, low ones shallow degradation. In the case of `CCCS(=O)(=O)Nc1cccc(-c2nc(C(C)(C)C)sc2-c2ccnc(NC3CC4(C3)CN(CC3CCN(c5ccc(C(=O)NC6CCC(=O)NC6=O)cc5)CC3)C4)n2)c1F` (racemic) [Compound 170, Rac-4-[4-({6-[(4-{2-tert-butyl-4-[2-fluoro-3-(propane-1-sulfonamido)phenyl]-1,3-thiazol-5-yl}pyrimidin-2-yl)amino]-2-azaspiro[3.3]heptan-2-yl}methyl)piperidin-1-yl]-N-[(3R)-2,6-dioxopiperidin-3-yl]benzamide], the DC50 on BRAF G466V (setting [1]) was greater than 500 nM; on BRAF V600E (setting [3]), 50 to 500 nM; on BRAF G469A (setting [5]), greater than 500 nM; at BRAF D594G (setting [7]) it was greater than 500 nM. Further, the Dmax was less than 30% at BRAF G466V (setting [2]), 30 to 70% at BRAF V600E (setting [4]), less than 30% on BRAF G469A (setting [6]) and less than 30% at BRAF D594G (setting [8]).
With `CCCS(=O)(=O)Nc1cccc(-c2nc(C3CCN(C(=O)C4CCN(CC5CCN(c6ccc(C7CCC(=O)NC7=O)cn6)CC5)CC4)CC3)sc2-c2ccncn2)c1F` (racemic) [Compound 221, Rac-N-{3-[2-(1-{1-[(1-{5-[(3R)-2,6-dioxopiperidin-3-yl]pyridin-2-yl}piperidin-4-yl)methyl]piperidine-4-carbonyl}piperidin-4-yl)-5-(pyrimidin-4-yl)-1,3-thiazol-4-yl]-2-fluorophenyl}propane-1-sulfonamide], the DC50 at BRAF G466V (setting [1]) is greater than 500 nM; on BRAF V600E (setting [3]), 10 to 50 nM; on BRAF G469A (setting [5]), greater than 500 nM; at BRAF D594G (setting [7]), greater than 500 nM. The Dmax on BRAF G466V (setting [2]) was 30 to 70%; on BRAF V600E (setting [4]), greater than 70%; on BRAF G469A (setting [6]), 30 to 70%; at BRAF D594G (setting [8]), 30 to 70%.
For the compound `CCN(C)S(=O)(=O)Nc1cccc(-c2nc(C(C)(C)C)sc2-c2ccnc(Nc3ccc(N4CCN(C(=O)C5(C)CCN(c6ccc(C7CCC(=O)NC7=O)cn6)CC5)CC4)cn3)n2)c1F` (racemic) [Compound 42, Rac-(3S)-3-[6-(4-{4-[6-({4-[2-tert-butyl-4-(3-{[ethyl(methyl)sulfamoyl]amino}-2-fluorophenyl)-1,3-thiazol-5-yl]pyrimidin-2-yl}amino)pyridin-3-yl]piperazine-1-carbonyl}-4-methylpiperidin-1-yl)pyridin-3-yl]piperidine-2,6-dione], the DC50 at BRAF G466V (setting [1]) was greater than 500 nM; on BRAF V600E (setting [3]), less than 10 nM; at BRAF G469A (setting [5]), greater than 500 nM; at BRAF D594G (setting [7]), greater than 500 nM. In addition, the Dmax on BRAF G466V (setting [2]) is less than 30%; at BRAF V600E (setting [4]), greater than 70%; on BRAF G469A (setting [6]), less than 30%; at BRAF D594G (setting [8]), 30 to 70%.
As for `O=C1CCC(c2ccc(N3CCC(CN4CCCN(c5ccc(-n6cc(-c7cc(Cl)cc(NS(=O)(=O)N8CCCC8)c7F)c(-c7ccncc7)n6)c(F)c5)CC4)CC3)nc2)C(=O)N1` (racemic) [Compound 345, Rac-N-{5-chloro-3-[1-(4-{4-[(1-{5-[(3R)-2,6-dioxopiperidin-3-yl]pyridin-2-yl}piperidin-4-yl)methyl]-1,4-diazepan-1-yl}-2-fluorophenyl)-3-(pyridin-4-yl)-1H-pyrazol-4-yl]-2-fluorophenyl}pyrrolidine-1-sulfonamide], the DC50 at BRAF G466V (setting [9]) was greater than 500 nM; on BRAF V600E (setting [11]) it was less than 10 nM; at BRAF G469A (setting [13]), greater than 500 nM; on BRAF D594G (setting [15]), greater than 500 nM. For the same compound, the Dmax on BRAF G466V (setting [10]) is 30 to 70%; on BRAF V600E (setting [12]), greater than 70%; at BRAF G469A (setting [14]) it was less than 30%; on BRAF D594G (setting [16]), less than 30%.
Regarding `O=C1CCN(c2ccc(N3CCC(CN4CCN(c5ccc(-n6cc(-c7cc(Cl)cc(NS(=O)(=O)N8CCCC8)c7F)c(-c7ccncc7)n6)cc5)CC4)CC3)cc2)C(=O)N1` [Compound 283, N-[5-chloro-3-(1-{4-[4-({1-[4-(2,4-dioxo-1,3-diazinan-1-yl)phenyl]piperidin-4-yl}methyl)piperazin-1-yl]phenyl}-3-(pyridin-4-yl)-1H-pyrazol-4-yl)-2-fluorophenyl]pyrrolidine-1-sulfonamide], the DC50 at BRAF G466V (setting [9]) was less than 10 nM; at BRAF V600E (setting [11]) it was less than 10 nM; on BRAF G469A (setting [13]), greater than 500 nM; on BRAF D594G (setting [15]) it was less than 10 nM. For the same compound, the Dmax on BRAF G466V (setting [10]) is greater than 70%; on BRAF V600E (setting [12]), greater than 70%; on BRAF G469A (setting [14]) it was 30 to 70%; on BRAF D594G (setting [16]), 30 to 70%.
Regarding `CCCS(=O)(=O)Nc1cc(Cl)cc(-c2cn(-c3ccc(N4CCN(CC5CCN(c6ccc([C@H]7CCC(=O)NC7=O)cc6)CC5)[C@H](C)C4)cc3)nc2-c2ccncc2)c1F` [Compound 275, N-[5-chloro-3-(1-{4-[(3R)-4-[(1-{4-[(3R)-2,6-dioxopiperidin-3-yl]phenyl}piperidin-4-yl)methyl]-3-methylpiperazin-1-yl]phenyl}-3-(pyridin-4-yl)-1H-pyrazol-4-yl)-2-fluorophenyl]propane-1-sulfonamide], the DC50 on BRAF G466V (setting [9]) is less than 10 nM; at BRAF V600E (setting [11]), less than 10 nM; on BRAF G469A (setting [13]), 10 to 50 nM; on BRAF D594G (setting [15]), less than 10 nM. Besides, the Dmax is greater than 70% at BRAF G466V (setting [10]), greater than 70% at BRAF V600E (setting [12]), 30 to 70% at BRAF G469A (setting [14]) and 30 to 70% on BRAF D594G (setting [16]).
For the compound `O=C1CC[C@H](c2ccc(N3CCC(CN4CCN(c5ccc(-n6cc(-c7cc(Cl)cc(NS(=O)(=O)N8CC[C@@H](F)C8)c7F)c(-c7ccncc7)n6)nc5)CC4)CC3)cc2)C(=O)N1` [Compound 294, (3R)—N-{5-chloro-3-[1-(5-{4-[(1-{4-[(3R)-2,6-dioxopiperidin-3-yl]phenyl}piperidin-4-yl)methyl]piperazin-1-yl}pyridin-2-yl)-3-(pyridin-4-yl)-1H-pyrazol-4-yl]-2-fluorophenyl}-3-fluoropyrrolidine-1-sulfonamide], the DC50 at BRAF G466V (setting [9]), at BRAF V600E (setting [11]), on BRAF G469A (setting [13]) and at BRAF D594G (setting [15]) was less than 10 nM each time. Besides, the Dmax at BRAF G466V (setting [10]), at BRAF V600E (setting [12]), at BRAF G469A (setting [14]) and on BRAF D594G (setting [16]) was greater than 70% each time.
Turning to `CCCS(=O)(=O)Nc1cc(Cl)cc(-c2cn(-c3ccc(N4CCN(CC5CCN(c6ccc(N7CCC(=O)NC7=O)cc6)CC5)[C@@H](C)C4)cc3)nc2-c2ccncc2)c1F` [Compound 280, N-[5-chloro-3-(1-{4-[(3S)-4-({1-[4-(2,4-dioxo-1,3-diazinan-1-yl)phenyl]piperidin-4-yl}methyl)-3-methylpiperazin-1-yl]phenyl}-3-(pyridin-4-yl)-1H-pyrazol-4-yl)-2-fluorophenyl]propane-1-sulfonamide], the DC50 is greater than 500 nM at BRAF G466V (setting [9]), 10 to 50 nM on BRAF V600E (setting [11]), greater than 500 nM at BRAF G469A (setting [13]) and greater than 500 nM at BRAF D594G (setting [15]). For the same compound, the Dmax was 30 to 70% at BRAF G466V (setting [10]), greater than 70% on BRAF V600E (setting [12]), less than 30% at BRAF G469A (setting [14]) and less than 30% on BRAF D594G (setting [16]).
Turning to `CCCS(=O)(=O)Nc1cccc(-c2cn(-c3ccc(N4CCC(CN5CCN(c6ccc(C7CCC(=O)NC7=O)cc6)CC5)CC4)cc3)nc2-c2ccncc2)c1F` (racemic) [Compound 381, Rac-(R)—N-(3-(1-(4-(4-((4-(4-(2,6-dioxopiperidin-3-yl)phenyl)piperazin-1-yl)methyl)piperidin-1-yl)phenyl)-3-(pyridin-4-yl)-1H-pyrazol-4-yl)-2-fluorophenyl)propane-1-sulfonamide], the half-maximal degradation concentration (DC50) is 10 to 50 nM on BRAF G466V (setting [9]), 10 to 50 nM at BRAF V600E (setting [11]), 10 to 50 nM at BRAF G469A (setting [13]) and less than 10 nM on BRAF D594G (setting [15]). The Dmax at BRAF G466V (setting [10]) is 30 to 70%; on BRAF V600E (setting [12]), greater than 70%; at BRAF G469A (setting [14]) it was 30 to 70%; on BRAF D594G (setting [16]), 30 to 70%.
